Results taken from PubChem BioAssay AID2060890 (Molecular Pharmacology Branch, DTP, NCI, 2025).

Tested on: LG0703-F948-PDC complex spheroid viability
Assay: Anticancer human tumor LG0703-F948-PDC patient-derived lung adenocarcinoma cell line growth inhibition [RAS]
Details: for IC50: curve of first compound; for viability, T/C: stronger effect = lower value
Text: RAS pathway inhibitors in Combinations in Complex Spheroids
A high-throughput screen of multi-cell type tumor spheroids was designed to identify active combinations of RAS pathway inhibitors and targeted small molecules. Complex spheroids include a stromal component modeled by human endothelial cells (HUVEC) and fibroblasts modeled by human mesenchymal stem cells (MSCs). The concentration ranges selected for each drug and investigational agent were based upon clinically achievable concentrations if the clinical Cmax of the agent was known.
Compounds. The drugs and investigational agents: abemaciclib (NSC768073), cobimetinib (NSC768068), divarasib (GDC6063, NSC841802), docetaxel (NSC628503), GDC-1971 (RLY-1971, NSC841576), gemcitabine (NSC613327), inavolisib (NSC800729), ipatasertib (NSC767898), KB-0742 (NSC834161), MRTX-1133 (NSC836407), osimertinib (NSC779217), RMC-4630 (NSC839698), RMC-6236 (NSC851965), RMC-6291 (NSC852671), Ro-3306 (NSC812927), sapanisertib (NSC764658), SN-38 (NSC673596), staurosporine (NSC755774), SY5609 (NSC837396), and tovorafenib (DAY101, NSC766906), were obtained from the National Cancer Institute (NCI) Developmental Therapeutics Program Chemical Repository. The FDA-approved anticancer drug set is available from the NCI Developmental Therapeutics Program. […] The stock solutions were prepared in dimethyl sulfoxide (DMSO, Sigma-Aldrich, St. Louis, MO, cat. D2650) at 800-fold the tested concentration and stored at -70 degrees C prior to their use. All drugs and investigational agents were tested over a range starting from a high concentration at or near the clinical Cmax and decreasing in half-log increments. If the clinical Cmax for an agent had not been determined, the highest concentration tested was 10 microM.
Cell Culture. All cells were maintained in an incubator at 37 degrees C and 5% CO2 with 95% humidity. The PDC lines were cultured according to standard operating procedures established by the NCI PDMR. All PDCs were thawed and cultured in Matrigel-coated flasks prepared with a working solution of 1X Ham's F-12 nutrient mix, without supplementation (Invitrogen, Waltham, MA, cat. 11765054), 100 U/mL penicillin-streptomycin (Invitrogen, cat. 15140122), and 2.5% Matrigel (Corning Inc., Corning, NY, cat. 354248) for the first three passages. The 362531-283-R-J2-PDC and 782815-120-R-J1-PDC lines were cultured in 6C/Colon 1B media, which includes advanced DMEM/F-12 (Thermo Fisher Scientific, cat. 12634028), 10 mM HEPES (Thermo Fisher Scientific, cat. 15630080), 1X GlutaMAX supplement (Thermo Fisher Scientific, cat. 35050061), 0.1 mg/mL primocin (InvivoGen, San Diego, CA, cat. ant-pm-2), 10% defined fetal bovine serum, heat inactivated (HyClone Laboratories Inc., Logan, UT, cat. SH30070.03HI), 50% L-WRN conditioned media (ATCC, cat. CRL-3276), 1.25 mM N-Acetyl-L-cysteine (Sigma-Aldrich, cat. A9165), 10 mM nicotinamide (Sigma-Aldrich, cat. N0636), 1X B-27 supplement (Thermo Fisher Scientific, cat. 17504044), 1X N-2 supplement (Thermo Fisher Scientific, cat. 17502048), 50 ng/mL human EGF (Thermo Fisher Scientific, cat. PHG0311), and 10 microM Y-27632 dihydrochloride (Tocris Bioscience, cat. 1254). The K12877-001-R-J1-PDC line was cultured in 6I media, which includes all 6C/Colon 1B media plus 10 ng/mL human FGF-10 (PeproTech, cat. 100-26), 1 ng/mL human FGF-2 (PeproTech, cat. 100-18B), 1 µM prostaglandin E2 (Tocris Bioscience, cat. 2296), […] hydrocortisone (Sigma-Aldrich, cat. H4001), and […] bovine insulin (Sigma-Aldrich, cat. I6634). The K86415-001-R-J1-PDC line was cultured in 6D media, which includes all 6C/Colon 1B media components minus the L-WRN conditioned media. The 485176-168-R4-J1-PDC was cultured in PANC media, which includes all 6C/Colon 1B media plus 100 ng/mL human FGF-10 (PeproTech, cat. 100-26), 500 nM SB-431542 (Selleckchem, cat. S1067), and 10 nM gastrin (Tocris Bioscience, cat. 3006). […]
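Also: spheroids exposed to agents for 7 days.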
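For viability, T/C in this document: 100% = DMSO vehicle wells.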

`O=C(c1ccc(F)c(F)c1Nc1ccc(I)cc1F)N1CC(O)([C@@H]2CCCCN2)C1` + CCn1c(-c2cccnc2C(C)OC)c2c3cc(ccc31)N1CCOC(CC(NC(=O)C(C(C)C)N(C)C(=O)C3(F)CCN(C(=O)C#CC(C)(C)N(C)C)CC3)C(=O)N3CCCC(N3)C(=O)OCC(C)(C)C2)C1 was tested, and the IC50 (second compound 0.000949 µM) was 79.9 nM, the IC50 (second compound 0.003 µM) was 63.9 nM and the IC50 (second compound 0.00949 µM) was 87.3 nM. It also gave an IC50 (second compound 0.03 µM) of 65.1 nM, an IC50 (second compound 0.0949 µM) of 22.7 nM and an IC50 (second compound 0.3 µM) of under 3.16 nM. The viability, T/C (second compound 0.000949 µM, first compound 0.00316 µM) was 93.7%, the viability, T/C (second compound 0.000949 µM, first compound 0.01 µM) was 93.3% and the viability, T/C (second compound 0.000949 µM, first compound 0.0316 µM) was 64.2%. The viability, T/C (second compound 0.000949 µM, first compound 0.1 µM) was 48.2%, the viability, T/C (second compound 0.000949 µM, first compound 0.316 µM) was 33.4% and the viability, T/C (second compound 0.000949 µM, first compound 1 µM) was 28.2%. It also gave a viability, T/C (second compound 0.003 µM, first compound 0.00316 µM) of 97.1%, a viability, T/C (second compound 0.003 µM, first compound 0.01 µM) of 79.8% and a viability, T/C (second compound 0.003 µM, first compound 0.0316 µM) of 60.5%. It also gave a viability, T/C (second compound 0.003 µM, first compound 0.1 µM) of 40.7%, a viability, T/C (second compound 0.003 µM, first compound 0.316 µM) of 38.4% and a viability, T/C (second compound 0.003 µM, first compound 1 µM) of 27.2%. The viability, T/C (second compound 0.00949 µM, first compound 0.00316 µM) was 87.3%, the viability, T/C (second compound 0.00949 µM, first compound 0.01 µM) was 88.3% and the viability, T/C (second compound 0.00949 µM, first compound 0.0316 µM) was 70%. The viability, T/C (second compound 0.00949 µM, first compound 0.1 µM) was 46.9%, the viability, T/C (second compound 0.00949 µM, first compound 0.316 µM) was 30.6% and the viability, T/C (second compound 0.00949 µM, first compound 1 µM) was 21.6%. The viability, T/C (second compound 0.03 µM, first compound 0.00316 µM) was 96.2%, the viability, T/C (second compound 0.03 µM, first compound 0.01 µM) was 76.1% and the viability, T/C (second compound 0.03 µM, first compound 0.0316 µM) was 60.9%. It also gave a viability, T/C (second compound 0.03 µM, first compound 0.1 µM) of 42.7%, a viability, T/C (second compound 0.03 µM, first compound 0.316 µM) of 33.1% and a viability, T/C (second compound 0.03 µM, first compound 1 µM) of 21.9%. For the same compound, the viability, T/C (second compound 0.0949 µM, first compound 0.00316 µM) was 69.4%, the viability, T/C (second compound 0.0949 µM, first compound 0.01 µM) was 61% and the viability, T/C (second compound 0.0949 µM, first compound 0.0316 µM) was 44.2%. For the same compound, the viability, T/C (second compound 0.0949 µM, first compound 0.1 µM) was 33.5%, the viability, T/C (second compound 0.0949 µM, first compound 0.316 µM) was 20.9% and the viability, T/C (second compound 0.0949 µM, first compound 1 µM) was 12.4%. It also gave a viability, T/C (second compound 0.3 µM, first compound 0.00316 µM) of 41.6%, a viability, T/C (second compound 0.3 µM, first compound 0.01 µM) of 35.4% and a viability, T/C (second compound 0.3 µM, first compound 0.0316 µM) of 24%. The viability, T/C (second compound 0.3 µM, first compound 0.1 µM) was 13.1%, the viability, T/C (second compound 0.3 µM, first compound 0.316 µM) was 13.1% and the viability, T/C (second compound 0.3 µM, first compound 1 µM) was 5.27%.
